According to PubChem BioAssay AID743395 (Broad Institute, 2014):

System: HepG2 viability, CellTiter-Glo ATP luminescence, 72 h
Assay: viability loss in human hepatoma cells – cell-based, CellTiter-Glo luminescence, cherry-pick, set 2, cytotoxicity control, dose response (AID 743395)

Cc1occc1C(=O)N/N=C/c1c(O)ccc2ccccc12
AC35: 6.44 µM

COc1ccc(-c2ccc3oc(-c4ccc(OC)cc4)c(C#CCO)c3c2)cc1
AC35: 3.2 µM

O=C(NCCN1C(=O)S/C(=C\c2ccc(OC(F)F)cc2)C1=O)c1cnccn1
AC35: 10.5 µM

O=[N+]([O-])c1ccc(N=Nc2c(Cl)cc(O)cc2Cl)cc1
AC35: 4.24 µM

CCCC(=O)NC(c1ccc(Cl)cc1)c1ccc2cccnc2c1O (stereo unspecified)
AC35: 1.77 µM

Cn1c(C(=O)c2ccccc2[N+](=O)[O-])nc2ccccc21
AC35: 14.3 µM

CC12CCC(CC1O)C2C(=O)O (stereo unspecified)
AC35: 17.9 µM

CC(C)(C)N(Cc1ccccc1)C(=O)c1cc2ccccc2o1
AC35: 16.1 µM

O=C(C1CC1)N1CC(=O)N2[C@H](CO)[C@@H](c3ccc(-c4ccccc4F)cc3)[C@@H]2C1
AC35: 18.9 µM

CC(C)n1cc(/C=C/c2cc[n+](C)cc2)c2ccccc21
AC35: 11.2 µM

O=C(C[C@@H]1CC[C@H]2[C@@H](COC[C@H](O)CN2Cc2ccc3c(c2)OCO3)O1)Nc1ccc(-c2ccccc2)cc1
AC35: 16.8 µM

CCCC(=O)Nc1nc2ccc(NC(=O)c3c(F)c(F)c(OC)c(F)c3F)cc2s1
AC35: 7.54 µM

COc1ccc(Nc2nc(-c3sc(C)nc3C)cs2)cc1
AC35: 1.29 µM

CC(C)N1CCc2c(sc(NC(=O)c3ccc([N+](=O)[O-])o3)c2C(N)=O)C1
AC35: 4.77 µM

Clc1ccc(SCc2cc(N3CCOCC3)nc(-c3ccccn3)n2)cc1
AC35: 9 µM

CC1(C(=O)NCc2cccs2)Cc2c(-c3ccc4c(c3)OCO4)ccnc2O1 (stereo unspecified)
AC35: 16.4 µM

Cc1cccc(NC(=S)N/N=C/c2cccc(O)c2)c1C
AC35: 12.2 µM

O=C(c1ccc(Br)cc1)c1cc([N+](=O)[O-])ccc1N1CCOCC1
AC35: 3.19 µM

O=S(=O)(Nc1cc(Sc2cccc3cccnc23)c(O)c2ccccc12)c1ccccc1
AC35: 7.49 µM

COc1ccccc1Nc1nc(-c2sc(NC(=O)C(C)(C)C)nc2C)cs1
AC35: 15.7 µM

CCN1CCN(c2cc(C)c3cc(NC(=O)c4ccc(OC)c(OC)c4)ccc3n2)CC1
AC35: 12.4 µM

CC(=O)NC(c1ccc(C(C)C)cc1)c1ccc2cccnc2c1O (stereo unspecified)
AC35: 0.861 µM

COc1ccc(NC(=O)C(=O)NCC2CCCN2S(=O)(=O)c2cccs2)cc1 (stereo unspecified)
AC35: 12.8 µM

O=C(Cc1ccccc1)N1CC(=O)N2[C@H](C1)[C@@H](c1ccc(C#Cc3ccccc3)cc1)[C@@H]2CO
AC35: 20.3 µM

O=C1/C(=C\c2ccc(O)cc2)SC(=S)N1Cc1ccccc1
AC35: 17.3 µM

CCC(=O)N1CC2(CCN(Cc3ccc(Cl)cc3)CC2)c2c(n(C)c3cc(OC)ccc23)[C@H]1CO
AC35: 9.27 µM

CN1c2ccc(-c3ccc(F)cc3)cc2[C@H]2[C@H](CCN2S(=O)(=O)c2cccc(F)c2)[C@@H]1CO
AC35: 17.3 µM

COc1cc2c(cc1OC)C(C)N(C(=O)Nc1cc(C)cc(C)c1)CC2 (stereo unspecified)
AC35: 7.81 µM

COC(=O)c1ccccc1-c1c2ccc(=N)cc-2oc2cc(N)ccc12
AC35: 15.8 µM

Oc1c(Cl)cc(CN2CCOCC2)c2cccnc12
AC35: 7.67 µM

COc1ccccc1NC(=S)N(Cc1ccco1)Cc1cc2cc(C)cc(C)c2[nH]c1=O
AC35: 11.6 µM

COc1ccc([C@H]2C[C@H](O)[C@@H](n3cc(-c4ccc(F)cc4)nn3)CN2Cc2cccs2)cc1
AC35: 6.12 µM

Cc1cccc(N(C)C(=O)c2cc3c(=O)[nH]c4ccc(C)cc4c3s2)c1
AC35: 4.26 µM

CC(C)C[C@H]1CN([C@@H](Cc2ccc(O)cc2)CN2CCC[C@H]2CN2C(=O)C(=O)NC[C@@H]2Cc2ccccc2)C(=O)C(=O)N1CC1CCCCC1
AC35: 15 µM

CCCCn1c(CN2CCN(c3cccc(Cl)c3)CC2)nc2c1c(=O)[nH]c(=O)n2C
AC35: 12.3 µM

O=c1cc(-c2ccc(O)c(O)c2)oc2cc(O)cc(O)c12
AC35: 19 µM

COc1cc2c(C#CCCO)c(-c3ccsc3)oc(=O)c2cc1OC
AC35: 21 µM

Cc1cc(C)c2nc(Cl)c(CN(Cc3ccco3)C(=O)Nc3ccccc3C)cc2c1
AC35: 5.84 µM

CC(C)C[C@H](NC(=O)c1nc[nH]c1C(=O)N1CCN(C(=O)OC(C)(C)C)CC1)C(=O)OC(C)(C)C
AC35: 14.6 µM

CCCC(=O)NC1=C(Cl)C(=O)c2ccccc2C1=O
AC35: 9.76 µM

O=Nc1ccc(O)c2ncccc12
AC35: 5.57 µM

COc1cc(OC)c2c(-c3cccc(-c4sccc4C(C)=O)c3)cc(=O)oc2c1
AC35: 7.12 µM

CC(=O)Nc1sc2c(c1-c1nc3ccccc3s1)CN(C(C)C)CC2
AC35: 3.4 µM

Oc1ccc(/C=N/Nc2nc(-c3ccccc3F)nc3ccccc23)c(O)c1
AC35: 15.6 µM

COc1cccc(Sc2ccccc2/C=N/NC(N)=O)c1
AC35: 9.98 µM

CCN(CC)CCCNc1nc2ccccc2c2nc(-c3ccncc3)nn12
AC35: 7.23 µM

O=[N+]([O-])c1ccc(N2CCOCC2)c2c1no[n+]2[O-]
AC35: 8.72 µM

COc1cccc(C2c3cc4c(cc3OC(NNC(N)=O)C2C)OCO4)c1O (stereo unspecified)
AC35: 14.3 µM

COc1cccc(-c2ccc(C3[C@@H]4CN(S(=O)(=O)c5cccc(OC)c5)C[C@H]3N4)cc2)c1 (stereo partly specified)
AC35: 8.91 µM

COc1cc(OC)cc(-c2nc3ccccc3c(=O)n2OC(=O)c2ccc(C)c(C)c2)c1
AC35: 21.5 µM

O=S(=O)(Cc1ccc(Cl)cc1Cl)c1ccc(Cl)cc1
AC35: 11.3 µM

CN(C)C(=O)C(CCN1CCC(O)(c2ccc(Cl)cc2)CC1)(c1ccccc1)c1ccccc1
AC35: 10.1 µM

CC1=Nc2cc(C(=O)NCC3CCCO3)ccc2Sc2ccc(Br)cc21 (stereo unspecified)
AC35: 19.4 µM

O=C(N/N=C/c1cccs1)c1cc(C2CC2)nc2ccccc12
AC35: 21.1 µM

COc1ccccc1NC(=O)CSc1ccc(-c2ccccn2)nn1
AC35: 20.4 µM

O=C(C1CCCC1)N1CC(=O)N2[C@H](CO)[C@@H](c3ccc(-c4ccccc4F)cc3)[C@@H]2C1
AC35: 16.3 µM

CCOC(=O)c1ccc(-c2c(-c3cc(OC)c(OC)c(OC)c3)noc2C)cc1F
AC35: 5.6 µM

O=C(Nc1nc(-c2ccccn2)cs1)c1ccc(F)c(S(=O)(=O)N2CCOCC2)c1
AC35: 11.3 µM

Cn1cc(C(=O)N/N=C/c2ccc3c(c2)OCO3)c2ccccc21
AC35: 11.2 µM

COc1ccc(OC)c(-c2cnc(OC(C)(C)C)nc2OC(C)(C)C)c1
AC35: 19.3 µM

Nc1[nH]c(C(=O)c2ccccc2)c(-c2ccccc2C(F)(F)F)c1C(=O)NCCc1c[nH]c2ccccc12
AC35: 22.4 µM

Cc1ccc(C2(C)NC(=O)N(CC(=O)Nc3nc(-c4ccccn4)cs3)C2=O)cc1 (stereo unspecified)
AC35: 4.46 µM

Brc1ccc2c(c1)C(C1=NCCN1)c1ccccc1CS2 (stereo unspecified)
AC35: 18.3 µM

Oc1ccc2ccccc2c1N=Nc1nccs1
AC35: 11.3 µM

COc1ccc(-c2cc(NC=O)c3ncc(-c4ccc(OC)c(OC)c4)n3c2)cc1
AC35: 6.95 µM

CCN(CC)CCCNc1ccc2ncn3c4ccc(O)cc4c(=O)c1c23
AC35: 1.03 µM

Cc1ccnc2c1ccc1cccnc12
AC35: 2.98 µM

Cc1ccc(/C=N/NC(=O)c2ccc3ccccc3c2)s1
AC35: 9.16 µM

O=c1[nH]c(/C=C/c2ccccc2F)nc2ccccc12
AC35: 9.06 µM

Cc1cc2[nH]c3c(c[n+](C)c4ccccc34)c2cc1C
AC35: 2.58 µM

CC/C=C/CC(=O)N[C@@H](c1ccccc1)[C@@H](O)C(=O)O[C@H]1C[C@@]2(O)[C@@H](OC(=O)c3ccccc3)C3[C@](C)(C(=O)[C@H](OC(C)=O)C(=C1C)C2(C)C)[C@@H](O)C[C@H]1OC[C@@]31OC(C)=O (stereo partly specified)
AC35: 1.98 µM

CCC1=Nc2cc(C(=O)NCC3CCCO3)ccc2Sc2ccc(Cl)cc21 (stereo unspecified)
AC35: 10.6 µM

O=C(N/N=C/c1c(O)ccc2ccccc12)C(=O)N1CCCC1
AC35: 15.7 µM

O=C1C=C(NCCc2cc(Br)c(O)c(Br)c2)C(=O)c2ncccc21
AC35: 6.95 µM

COc1ccc(S(=O)(=O)Nc2cccc3ccc(O)cc23)cc1
AC35: 13.8 µM

O=C(Nc1ccccc1)N1CCCCN2[C@@H](CO)[C@H](c3ccc(C#Cc4ccccc4)cc3)[C@@H]2C1
AC35: 10.9 µM

NC(=O)N=Nc1c2[nH]c3ccccc3nc-2c2ccccc12
AC35: 16.6 µM

O=C(Nc1cccc(F)c1)N1CCCCN2[C@@H](CO)[C@H](c3ccc(C#CC4CC4)cc3)[C@@H]2C1
AC35: 10.1 µM

COc1ccc(-c2ccc3c(c2)[C@H]2[C@H](CCN2S(=O)(=O)c2ccc(OC)cc2)[C@@H](CO)N3)cc1
AC35: 14.5 µM

Cc1ccc(C(=O)N/N=C/c2cc(Br)ccc2O)cn1
AC35: 17.8 µM

Cc1ccc(C)c(C2NC(=O)c3ccccc3N2)c1 (stereo unspecified)
AC35: 5.13 µM

CC(=NNC(=O)c1ccncc1)c1ccc2ccccc2c1O
AC35: 2.59 µM

N#CC1=C(N)Oc2c(ccc3cccnc23)C1c1ccccc1 (stereo unspecified)
AC35: 6.64 µM

O=c1ccc2c(-c3ccccc3)c3ccc(O)cc3oc-2c1
AC35: 17.8 µM

COc1ccc(S(=O)(=O)Nc2cc3c(cc2C(C)=O)OCO3)cc1
AC35: 12.9 µM

O=C1c2ccccc2C(=O)c2c1cccc2N1CCCC1
AC35: 18.9 µM

O=C1c2ccccc2C(=O)c2c1cccc2N(CCO)CCO
AC35: 16.7 µM

Nc1sc(-c2ccccc2)cc1-c1n[nH]c(=S)n1C1CCCCC1
AC35: 7.54 µM

COc1ccc(CC(=O)NCc2ccc(-n3cccc3)cc2)cc1OC
AC35: 9.29 µM

Cc1cc2c(cc1S(=O)(=O)Nc1ccc(F)cc1)n(C)c(=O)c(=O)n2C
AC35: 18.2 µM

CC(C)CN(CCCNC(=O)CN1C(=O)CSc2ccc(S(=O)(=O)N3CCOCC3)cc21)CC(C)C
AC35: 6.21 µM

Cc1cccc(NS(=O)(=O)c2ccc(-c3cnc(C4CC4)o3)cc2)c1
AC35: 5.11 µM

O=C(NN=C1CCCC1)c1[nH]c2ccc(Cl)cc2c1-c1ccccc1
AC35: 18.9 µM

C[C@@H]1CN([C@@H](C)CO)C(=O)c2cc(NS(=O)(=O)c3ccc(Cl)cc3)ccc2O[C@@H]1CN(C)Cc1ccc(C(F)(F)F)cc1
AC35: 16.4 µM

CC(=O)N1CCc2c(sc(NC(=O)c3ccc4c(c3)OCCO4)c2C#N)C1
AC35: 19.4 µM

O=C(N/N=C/c1c(O)ccc2ccccc12)c1ccc(Br)o1
AC35: 1.18 µM

CCN1/C(=C\c2ccc3cc(C)ccc3[n+]2CC)Sc2cc(C)c(C)cc21
AC35: 3.19 µM

Nc1ccc2ccc3cccc[n+]3c2c1
AC35: 21.5 µM

COc1cc2c(-c3ccccc3)c(C)oc2cc1/C=N/NC(N)=S
AC35: 6.29 µM

COc1ccc(CNS(=O)(=O)c2cc(-c3cc(C)no3)ccc2C(C)C)cc1
AC35: 7.14 µM

Cc1ccc(C(=O)NC(=S)NNC(=O)c2ccccc2O)cc1
AC35: 17.2 µM

O=C(c1cccc(S(=O)(=O)N2CCN(c3ccc(F)cc3)CC2)c1)N1CCCC(C(F)(F)F)C1 (stereo unspecified)
AC35: 9.64 µM

O=C(Nc1cccc(F)c1)N1CCCCN2[C@@H](CO)[C@H](c3ccc(C#Cc4ccccc4)cc3)[C@@H]2C1
AC35: 9.45 µM

CC(C)CC#Cc1ccc([C@@H]2[C@@H](CO)N3CCCCN(C(=O)NC4CCCC4)C[C@H]23)cc1
AC35: 9.9 µM

CCN1/C(=C/c2ccc3cc(C)cc(C)c3[n+]2CC)Sc2cc(C)ccc21
AC35: 0.908 µM

NS(=O)(=O)c1ccc(S(=O)(=O)N(CCc2ccccc2)Cc2ccccn2)cc1
AC35: 21.5 µM
